From patent publication US20240148821A1, “PHARMACEUTICAL USE OF CYCLIC PEPTIDE COMPOUND” (CHUGAI SEIYAKU KABUSHIKI KAISHA, priority 2021, published 2024)
Numbered stars: 1 amine (or outer) side, 2 acyl side, 3 side chain; on linkers, the order of the positions; unused ones are H or OH. Bridge positions count the residues as written; N and C are the ends. Square brackets hold non-standard residues; d marks the D form. Peptide text beside a SMILES is read from it. * marks the point of attachment. hPhe(3,5-F2-4-CF3) = N[C@@H](CCc1cc(F)c(C(F)(F)F)c(F)c1)C(=O)O; hPhe(3-Cl-4-CF3) = N[C@@H](CCc1ccc(C(F)(F)F)c(Cl)c1)C(=O)O; hPhe(3-F,4-CF3) = N[C@@H](CCc1ccc(C(F)(F)F)c(F)c1)C(=O)O; NMePhe(4-CF3) = CN[C@@H](Cc1ccc(C(F)(F)F)cc1)C(=O)O; NMePhe(3-Cl) = CN[C@@H](Cc1cccc(Cl)c1)C(=O)O; NMePhe(4-Me) = CN[C@@H](Cc1ccc(C)cc1)C(=O)O; NMePhe(3-F) = CN[C@@H](Cc1cccc(F)c1)C(=O)O; NMeGly(cPent) = CN[C@H](C(=O)O)C1CCCC1; Phe(3-I) = N[C@@H](Cc1cccc(I)c1)C(=O)O; Pro(4,4-F2) = O=C(O)[C@@H]1CC(F)(F)CN1; dβ3hPip = O=C(C[C@H]1CCCCN1[*:1])[*:2]; NMeCha = CN[C@@H](CC1CCCCC1)C(=O)O; NMeGly(cPr) = CN[C@H](C(=O)O)C1CC1; NMeChg = CN[C@H](C(=O)O)C1CCCCC1; NMeF = CN[C@@H](Cc1ccccc1)C(=O)O; NMeD = CN[C@@H](CC(=O)O)C(=O)O; CH2CONHtBu = CC(C)(C)NC(=O)C*; NMeL = CN[C@@H](CC(C)C)C(=O)O; NMeV = CN[C@H](C(=O)O)C(C)C; d(β3hA) = C[C@@H](N)CC(=O)O; NMeS = CN[C@@H](CO)C(=O)O; NMeA = CN[C@@H](C)C(=O)O; NMeAib = CNC(C)(C)C(=O)O; Piperidide = C1CCN(*)CC1; Pyrrolidide = C1CCN(*)C1; dNMeA = CN[C@H](C)C(=O)O; Ac5c = NC1(C(=O)O)CCCC1; Aze = O=C(O)[C@@H]1CCN1; Ac4c = NC1(C(=O)O)CCC1; βAla = NCCC(=O)O; Sar = CNCC(=O)O

test system: Human pancreatic cancer cell line AsPC-1 (G12D mutation Kras); assay: AsPC-1 cell growth inhibition (AsPC-1 CGI); assay type: cell-based; conditions: read-out: AsPC-1 cell growth inhibition, 50% growth inhibitory concentration (IC50 value); 96 hours, CellTiter-Glo, values classified in ranges
Description: Test compounds were serially dilated with dimethyl sulfoxide, and 200 nL was then dispensed to a U-bottom 96-well plate using Labcyte Echo. […] The cell suspension was dispensed to a. plate containing a test compound at 100 μL per well and incubated at 37° C. in a 5% carbon dioxide gas incubator. 96 hours later, 80 μL of CellTiter-Glo (Promega) was added to each well and fluorescence was measured.

Row | SMILES | IC50
1 | CC[C@H](C)[C@@H]1NC(=O)[C@H](CC(C)C)N(C)C(=O)C[C@@H](C(=O)N2CCCC2)N(C)C(=O)[C@H](C2CCCC2)N(C)C(=O)C2(CCCC2)NC(=O)[C@@H]2CC(F)(F)CN2C(=O)[C@H](CCc2ccc(C(F)(F)F)c(Cl)c2)NC(=O)CN(C)C(=O)[C@H](CC2CCCCC2)N(C)C(=O)CN(C)C(=O)CN(C)C1=O [Compound 1270] ([NMeL]I[Sar][Sar][NMeCha][Sar][hPhe(3-Cl-4-CF3)][Pro(4,4-F2)][Ac5c][NMeGly(cPent)][NMeD]-Pyrrolidide; lactam N-11) | ≤ 20 nM
2 | CC[C@H](C)[C@@H]1NC(=O)[C@H](C)N(C)C(=O)C[C@@H](C(=O)N2CCCCC2)N(C)C(=O)[C@H](C(C)C)N(C)C(=O)C2(CCCC2)NC(=O)[C@@H]2CCCN2C(=O)[C@H](CCc2ccc(C(F)(F)F)c(F)c2)NC(=O)CN(C)C(=O)[C@H](CC2CCCCC2)N(C)C(=O)CN(C)C(=O)CN(C)C1=O [Compound 266] ([NMeA]I[Sar][Sar][NMeCha][Sar][hPhe(3-F,4-CF3)]P[Ac5c][NMeV][NMeD]-Piperidide; lactam N-11) | > 500 nM
3 | CC[C@H](C)[C@@H]1NC(=O)CCNC(=O)[C@H](Cc2ccccc2)N(C)C(=O)[C@H](C2CCCCC2)N(C)C(=O)C2(CCCC2)NC(=O)[C@@H]2CCCN2C(=O)[C@H](CCc2ccc(C(F)(F)F)c(Cl)c2)NC(=O)CN(C)C(=O)[C@H](CC2CCCCC2)N(C)C(=O)CN(C)C(=O)CN(C)C1=O [Compound 1007] (cyclo([Ac5c][NMeChg][NMeF][βAla]I[Sar][Sar][NMeCha][Sar][hPhe(3-Cl-4-CF3)]P)) | > 500 nM
4 | CC[C@H](C)[C@@H]1NC(=O)[C@H](CC(C)C)N(C)C(=O)C[C@H]2CCCCN2C(=O)[C@H](C(C)C)N(C)C(=O)C2(CCCC2)NC(=O)[C@@H]2CCCN2C(=O)[C@H](CCc2ccc(C(F)(F)F)c(F)c2)NC(=O)CN(C)C(=O)[C@H](CC2CCCCC2)N(C)C(=O)CN(C)C(=O)CN(C)C1=O [Compound 142] (cyclo([Ac5c][NMeV][dβ3hPip][NMeL]I[Sar][Sar][NMeCha][Sar][hPhe(3-F,4-CF3)]P)) | > 500 nM
5 | CC[C@H](C)[C@@H]1NC(=O)CCNC(=O)[C@H](Cc2cccc(F)c2)N(C)C(=O)[C@H](C2CCCCC2)N(C)C(=O)C2(CCCC2)NC(=O)[C@@H]2CCCN2C(=O)[C@H](CCc2ccc(C(F)(F)F)c(Cl)c2)NC(=O)CN(C)C(=O)[C@H](CC2CCCCC2)N(C)C(=O)CN(C)C(=O)CN(C)C1=O [Compound 237] (cyclo([Ac5c][NMeChg][NMePhe(3-F)][βAla]I[Sar][Sar][NMeCha][Sar][hPhe(3-Cl-4-CF3)]P)) | > 500 nM
6 | CC[C@H](C)[C@@H]1NC(=O)[C@H](CC(C)C)N(C)C(=O)C[C@@H](C(=O)N2CCCCC2)N(C)C(=O)[C@H](CC(C)C)NC(=O)C(C)(C)N(C)C(=O)[C@H](Cc2ccc(OC)cc2)NC(=O)[C@H](Cc2cccc(I)c2)NC(=O)CN(C)C(=O)[C@H](CC2CCCCC2)N(C)C(=O)CN(C)C(=O)CN(C)C1=O [Compound 320] ([NMeL]I[Sar][Sar][NMeCha][Sar][Phe(3-I)]Y(Me)[NMeAib]L[NMeD]-Piperidide; lactam N-11) | > 500 nM
7 | CC[C@H](C)[C@@H]1NC(=O)[C@H](CC(C)C)N(C)C(=O)C[C@@H](C(=O)N2CCCC2)N(C)C(=O)[C@H](C2CCCCC2)N(C)C(=O)C2(CCC2)NC(=O)[C@@H]2CC(F)(F)CN2C(=O)[C@H](CCc2cc(F)c(C(F)(F)F)c(F)c2)NC(=O)CN(C)C(=O)[C@H](CC2CCCCC2)N(C)C(=O)CN(C)C(=O)CN(C)C1=O [Compound 1192] ([NMeL]I[Sar][Sar][NMeCha][Sar][hPhe(3,5-F2-4-CF3)][Pro(4,4-F2)][Ac4c][NMeChg][NMeD]-Pyrrolidide; lactam N-11) | ≤ 20 nM
8 | CC[C@H](C)[C@@H]1NC(=O)[C@H](C)N(C)C(=O)C[C@@H](C)NC(=O)[C@H](C2CCCC2)N(C)C(=O)C2(CCCC2)NC(=O)[C@@H]2CCCN2C(=O)[C@H](CCc2ccc(C(F)(F)F)c(Cl)c2)NC(=O)[C@@H](C)N(C)C(=O)[C@H](Cc2ccc(C(F)(F)F)cc2)N(C)C(=O)CN(C)C(=O)CN(C)C1=O [Compound 1520] (cyclo([Ac5c][NMeGly(cPent)][d(β3hA)][NMeA]I[Sar][Sar][NMePhe(4-CF3)][dNMeA][hPhe(3-Cl-4-CF3)]P)) | > 500 nM
9 | CC[C@H](C)[C@@H]1NC(=O)[C@H](CC(C)C)N(C)C(=O)C[C@@H](C)NC(=O)[C@H](C2CC2)N(C)C(=O)C2(CCCC2)NC(=O)[C@@H]2CCCN2C(=O)[C@H](CCc2ccc(C(F)(F)F)c(Cl)c2)NC(=O)CN(C)C(=O)[C@H](CC2CCCCC2)N(C)C(=O)CN(C)C(=O)CN(C)C1=O [Compound 14] (cyclo([Ac5c][NMeGly(cPr)][d(β3hA)][NMeL]I[Sar][Sar][NMeCha][Sar][hPhe(3-Cl-4-CF3)]P)) | > 500 nM
10 | CC[C@H](C)[C@@H]1NC(=O)[C@H](CC(C)C)N(C)C(=O)C[C@@H](C(=O)N2CCCCC2)N(C)C(=O)[C@H](COC)N(C)C(=O)C2(CCCC2)NC(=O)[C@@H]2CCCN2C(=O)[C@H](CCc2ccc(C(F)(F)F)c(Cl)c2)NC(=O)CN(C)C(=O)[C@H](CC2CCCCC2)N(C)C(=O)CN(C)C(=O)CN(C)C1=O [Compound 850] ([NMeL]I[Sar][Sar][NMeCha][Sar][hPhe(3-Cl-4-CF3)]P[Ac5c][NMeS](Me)[NMeD]-Piperidide; lactam N-11) | > 500 nM
11 | CC[C@H](C)[C@@H]1NC(=O)[C@H](CC(C)C)N(C)C(=O)C[C@@H](C(=O)N(C)C)N(C)C(=O)[C@H](C2CCCC2)N(C)C(=O)C2(CCCC2)NC(=O)[C@H](Cc2ccc(C)cc2)N(C)C(=O)[C@H](CCc2ccc(C(F)(F)F)c(Cl)c2)NC(=O)CN(C)C(=O)[C@H](CC2CCCCC2)N(C)C(=O)[C@@H]2CCN2C(=O)[C@H](C)N(C)C1=O [Compound 908] ([NMeL]I[NMeA][Aze][NMeCha][Sar][hPhe(3-Cl-4-CF3)][NMePhe(4-Me)][Ac5c][NMeGly(cPent)][NMeD]-NMe2; lactam N-11) | > 500 nM
12 | CC[C@H](C)[C@@H]1NC(=O)[C@H](C)N(C)C(=O)C[C@@H](C)NC(=O)[C@H](C(C)C)N(C)C(=O)C2(CCCC2)NC(=O)[C@@H]2CCCN2C(=O)[C@H](CCc2ccc(C(F)(F)F)c(Cl)c2)NC(=O)[C@H]2CCCN2C(=O)[C@H](CC2CCCCC2)N(C)C(=O)[C@@H]2CCCN2C(=O)CN(C)C1=O [Compound 666] (cyclo([Ac5c][NMeV][d(β3hA)][NMeA]I[Sar]P[NMeCha][dP][hPhe(3-Cl-4-CF3)]P)) | > 500 nM
13 | CC[C@H](C)[C@@H]1NC(=O)[C@H](CC(C)C)N(C)C(=O)C[C@@H](C(=O)N2CCCCC2)N(C)C(=O)[C@H](C(C)C)N(C)C(=O)C2(CCCC2)NC(=O)[C@@H]2CCCN2C(=O)[C@H](CCc2ccc(C(F)(F)F)c(Cl)c2)NC(=O)CN(C)C(=O)[C@H](CC2CCCCC2)N(C)C(=O)[C@@H]2CCN2C(=O)[C@H](COCC(=O)NC(C)(C)C)N(C)C1=O [Compound 998] ([NMeL]I[NMeS](CH2CONHtBu)[Aze][NMeCha][Sar][hPhe(3-Cl-4-CF3)]P[Ac5c][NMeV][NMeD]-Piperidide; lactam N-11) | > 500 nM
14 | CC[C@H](C)[C@@H]1NC(=O)[C@H](C)N(C)C(=O)C[C@@H](C)NC(=O)[C@H](C2CCCC2)N(C)C(=O)C2(CCCC2)NC(=O)[C@@H]2CCCN2C(=O)[C@H](CCc2ccc(C(F)(F)F)c(Cl)c2)NC(=O)CN(C)C(=O)[C@H](Cc2cccc(Cl)c2)N(C)C(=O)[C@@H]2CCCN2C(=O)CN(C)C1=O [Compound 186] (cyclo([Ac5c][NMeGly(cPent)][d(β3hA)][NMeA]I[Sar]P[NMePhe(3-Cl)][Sar][hPhe(3-Cl-4-CF3)]P)) | > 500 nM
